Experimental data: paper PMC9133015 (Nature Communications, 2022)
Several values for one entry are separate records, joined by “and”; a condition that tells them apart may be missing. Equal values may be shown once.

Columns and labels:
Assay in all cases: Kinase inhibitor specificity profiling (Reaction Biology Corporation)
Assay type in all cases: biochemical
Set-up in all cases: % Enzyme Activity (relative to DMSO controls): concentration or dose not given beside the values
[1] = target: T1, panel of 370 protein kinases (Homo sapiens, UniProt Q9BYT3); conditions: 2 h, kinase STK33; read-out: % Enzyme Activity (relative to DMSO controls)
T1 construct: purchased Reaction Biology Corporation (assay service)

[2] = target: T2, panel of 370 protein kinases (Homo sapiens, UniProt O43353); conditions: 2 h, kinase RIPK2; read-out: % Enzyme Activity (relative to DMSO controls)
T2 construct: purchased Reaction Biology Corporation (assay service)

[3] = target: T3, panel of 370 protein kinases (Homo sapiens, UniProt P49137); conditions: 2 h, kinase MAPKAPK2; read-out: % Enzyme Activity (relative to DMSO controls)
T3 construct: purchased Reaction Biology Corporation (assay service)

[4] = target: T4, panel of 370 protein kinases (Homo sapiens, UniProt Q13164); conditions: 2 h, kinase ERK5/MAPK7; read-out: % Enzyme Activity (relative to DMSO controls)
T4 construct: purchased Reaction Biology Corporation (assay service)

[5] = target: T5, panel of 370 protein kinases (Homo sapiens, UniProt Q52WX2); conditions: 2 h, kinase SBK1; read-out: % Enzyme Activity (relative to DMSO controls)
T5 construct: purchased Reaction Biology Corporation (assay service)

[6] = target: T6, panel of 370 protein kinases (Homo sapiens, UniProt Q02779); conditions: 2 h, kinase MLK2/MAP3K10; read-out: % Enzyme Activity (relative to DMSO controls)
T6 construct: purchased Reaction Biology Corporation (assay service)

[7] = target: T7, panel of 370 protein kinases (Homo sapiens, UniProt P35626); conditions: 2 h, kinase GRK3; read-out: % Enzyme Activity (relative to DMSO controls)
T7 construct: purchased Reaction Biology Corporation (assay service)

[8] = target: T8, panel of 370 protein kinases (Homo sapiens, UniProt P52564); conditions: 2 h, kinase MKK6; read-out: % Enzyme Activity (relative to DMSO controls)
T8 construct: purchased Reaction Biology Corporation (assay service)

[9] = target: T9, panel of 370 protein kinases (Homo sapiens, UniProt Q15349); conditions: 2 h, kinase RSK3; read-out: % Enzyme Activity (relative to DMSO controls)
T9 construct: purchased Reaction Biology Corporation (assay service)

[10] = target: T10, panel of 370 protein kinases (Homo sapiens, UniProt P17252); conditions: 2 h, kinase PKCa; read-out: % Enzyme Activity (relative to DMSO controls)
T10 construct: purchased Reaction Biology Corporation (assay service)

[11] = target: T11, panel of 370 protein kinases (Homo sapiens, UniProt Q06187); conditions: kinase BTK
T11 construct: purchased Reaction Biology Corporation (assay service)

[12] = target: T12, panel of 370 protein kinases (Homo sapiens, UniProt O96013); conditions: 2 h, kinase PAK4; read-out: % Enzyme Activity (relative to DMSO controls)
T12 construct: purchased Reaction Biology Corporation (assay service)

[13] = target: T13, panel of 370 protein kinases (Homo sapiens, UniProt P22455); conditions: 2 h, kinase FGFR4; read-out: % Enzyme Activity (relative to DMSO controls)
T13 construct: purchased Reaction Biology Corporation (assay service)

[14] = target: T14, panel of 370 protein kinases (Homo sapiens, UniProt Q9P289); conditions: 2 h, kinase MST4; read-out: % Enzyme Activity (relative to DMSO controls)
T14 construct: purchased Reaction Biology Corporation (assay service)

[15] = target: T15, panel of 370 protein kinases (Homo sapiens, UniProt P42681); conditions: 2 h, kinase TXK; read-out: % Enzyme Activity (relative to DMSO controls)
T15 construct: purchased Reaction Biology Corporation (assay service)

[16] = target: T16, panel of 370 protein kinases (Homo sapiens, UniProt P27361); conditions: 2 h, kinase ERK1; read-out: % Enzyme Activity (relative to DMSO controls)
T16 construct: purchased Reaction Biology Corporation (assay service)

[17] = target: T17, panel of 370 protein kinases (Homo sapiens, UniProt Q8IU85); conditions: 2 h, kinase CAMK1d; read-out: % Enzyme Activity (relative to DMSO controls)
T17 construct: purchased Reaction Biology Corporation (assay service)

[18] = target: T18, panel of 370 protein kinases (Homo sapiens, UniProt O43293); conditions: 2 h, kinase ZIPK/DAPK3; read-out: % Enzyme Activity (relative to DMSO controls)
T18 construct: purchased Reaction Biology Corporation (assay service)

[19] = target: T19, panel of 370 protein kinases (Homo sapiens, UniProt Q05655); conditions: 2 h, kinase PKCd; read-out: % Enzyme Activity (relative to DMSO controls)
T19 construct: purchased Reaction Biology Corporation (assay service)

[20] = target: T20, panel of 370 protein kinases (Homo sapiens, UniProt P05771); conditions: 2 h, kinase PKCb1; read-out: % Enzyme Activity (relative to DMSO controls)
T20 construct: purchased Reaction Biology Corporation (assay service)

[21] = target: T21, panel of 370 protein kinases (Homo sapiens, UniProt Q96GX5); conditions: kinase MASTL
T21 construct: purchased Reaction Biology Corporation (assay service)
T21 sequence (Q96GX5 whole entry): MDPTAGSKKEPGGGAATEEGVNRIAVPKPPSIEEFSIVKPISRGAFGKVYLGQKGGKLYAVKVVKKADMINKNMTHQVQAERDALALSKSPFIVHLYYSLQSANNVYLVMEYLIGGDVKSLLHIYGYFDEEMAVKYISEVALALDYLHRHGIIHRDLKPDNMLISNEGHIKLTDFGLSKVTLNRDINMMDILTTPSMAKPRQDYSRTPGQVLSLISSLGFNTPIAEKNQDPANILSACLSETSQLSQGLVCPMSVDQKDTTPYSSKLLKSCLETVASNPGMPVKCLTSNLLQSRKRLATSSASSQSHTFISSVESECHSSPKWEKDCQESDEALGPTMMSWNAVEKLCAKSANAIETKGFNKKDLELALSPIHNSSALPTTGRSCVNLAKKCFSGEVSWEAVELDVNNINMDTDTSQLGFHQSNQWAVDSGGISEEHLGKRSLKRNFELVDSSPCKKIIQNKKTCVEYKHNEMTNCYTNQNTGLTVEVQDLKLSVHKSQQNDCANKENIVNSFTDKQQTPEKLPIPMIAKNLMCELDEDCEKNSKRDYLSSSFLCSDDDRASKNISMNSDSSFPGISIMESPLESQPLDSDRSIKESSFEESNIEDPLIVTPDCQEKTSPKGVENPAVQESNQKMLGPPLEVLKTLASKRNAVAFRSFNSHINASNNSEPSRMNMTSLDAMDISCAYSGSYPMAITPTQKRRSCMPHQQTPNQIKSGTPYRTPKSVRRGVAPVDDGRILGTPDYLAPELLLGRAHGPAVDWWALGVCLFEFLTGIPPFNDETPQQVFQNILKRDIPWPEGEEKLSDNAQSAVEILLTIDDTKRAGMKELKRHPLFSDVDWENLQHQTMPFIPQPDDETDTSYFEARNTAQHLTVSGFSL

T11 sequence (Q06187 whole entry): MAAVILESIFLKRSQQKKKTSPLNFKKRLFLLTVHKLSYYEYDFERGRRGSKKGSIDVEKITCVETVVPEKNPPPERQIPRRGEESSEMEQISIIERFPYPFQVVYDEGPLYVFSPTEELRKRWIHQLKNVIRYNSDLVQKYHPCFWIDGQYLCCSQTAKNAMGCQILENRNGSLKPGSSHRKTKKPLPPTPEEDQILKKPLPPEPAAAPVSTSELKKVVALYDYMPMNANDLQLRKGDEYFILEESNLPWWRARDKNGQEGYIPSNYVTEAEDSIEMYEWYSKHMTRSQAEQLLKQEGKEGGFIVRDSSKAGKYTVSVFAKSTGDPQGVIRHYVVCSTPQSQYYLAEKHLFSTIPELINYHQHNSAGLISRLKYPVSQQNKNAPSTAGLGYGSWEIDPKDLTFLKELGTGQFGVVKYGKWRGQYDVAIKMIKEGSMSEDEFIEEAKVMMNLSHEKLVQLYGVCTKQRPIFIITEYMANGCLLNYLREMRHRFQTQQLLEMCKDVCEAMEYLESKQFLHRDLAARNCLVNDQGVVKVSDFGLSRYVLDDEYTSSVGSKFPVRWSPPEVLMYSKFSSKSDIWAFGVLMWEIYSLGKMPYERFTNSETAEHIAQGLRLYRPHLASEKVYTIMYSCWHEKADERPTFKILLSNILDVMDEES
T3 sequence (P49137 whole entry): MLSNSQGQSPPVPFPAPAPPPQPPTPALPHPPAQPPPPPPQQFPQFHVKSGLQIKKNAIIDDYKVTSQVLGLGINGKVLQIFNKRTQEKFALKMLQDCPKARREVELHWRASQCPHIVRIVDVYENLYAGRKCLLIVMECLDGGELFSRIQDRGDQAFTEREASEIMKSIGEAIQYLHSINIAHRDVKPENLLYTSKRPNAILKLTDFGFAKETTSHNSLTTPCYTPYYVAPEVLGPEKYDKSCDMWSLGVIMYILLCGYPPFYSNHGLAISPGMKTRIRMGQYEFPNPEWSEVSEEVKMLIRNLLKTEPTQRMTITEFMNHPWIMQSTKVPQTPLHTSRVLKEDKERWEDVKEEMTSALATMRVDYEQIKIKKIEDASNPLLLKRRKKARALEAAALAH
T13 sequence (P22455 22-802): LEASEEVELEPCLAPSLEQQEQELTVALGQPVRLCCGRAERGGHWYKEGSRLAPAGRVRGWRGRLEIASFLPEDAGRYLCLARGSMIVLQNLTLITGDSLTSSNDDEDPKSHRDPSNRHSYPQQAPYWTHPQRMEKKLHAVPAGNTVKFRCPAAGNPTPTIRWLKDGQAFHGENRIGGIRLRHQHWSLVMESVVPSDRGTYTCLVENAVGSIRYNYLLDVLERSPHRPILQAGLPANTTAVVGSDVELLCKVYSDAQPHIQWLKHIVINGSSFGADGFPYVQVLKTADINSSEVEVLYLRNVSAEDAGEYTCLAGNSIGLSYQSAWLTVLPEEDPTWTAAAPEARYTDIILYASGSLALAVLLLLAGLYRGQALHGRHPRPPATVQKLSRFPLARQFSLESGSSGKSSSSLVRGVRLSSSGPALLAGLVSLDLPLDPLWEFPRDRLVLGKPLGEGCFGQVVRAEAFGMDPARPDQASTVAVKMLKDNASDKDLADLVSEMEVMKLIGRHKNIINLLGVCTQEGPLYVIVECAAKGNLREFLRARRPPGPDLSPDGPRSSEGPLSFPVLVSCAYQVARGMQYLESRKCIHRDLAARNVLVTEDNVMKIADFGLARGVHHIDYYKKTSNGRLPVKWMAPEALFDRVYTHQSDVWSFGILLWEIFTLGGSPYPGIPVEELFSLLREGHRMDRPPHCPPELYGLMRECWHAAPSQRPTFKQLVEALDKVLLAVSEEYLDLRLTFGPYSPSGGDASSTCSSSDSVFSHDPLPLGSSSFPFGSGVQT
T6 sequence (Q02779 whole entry): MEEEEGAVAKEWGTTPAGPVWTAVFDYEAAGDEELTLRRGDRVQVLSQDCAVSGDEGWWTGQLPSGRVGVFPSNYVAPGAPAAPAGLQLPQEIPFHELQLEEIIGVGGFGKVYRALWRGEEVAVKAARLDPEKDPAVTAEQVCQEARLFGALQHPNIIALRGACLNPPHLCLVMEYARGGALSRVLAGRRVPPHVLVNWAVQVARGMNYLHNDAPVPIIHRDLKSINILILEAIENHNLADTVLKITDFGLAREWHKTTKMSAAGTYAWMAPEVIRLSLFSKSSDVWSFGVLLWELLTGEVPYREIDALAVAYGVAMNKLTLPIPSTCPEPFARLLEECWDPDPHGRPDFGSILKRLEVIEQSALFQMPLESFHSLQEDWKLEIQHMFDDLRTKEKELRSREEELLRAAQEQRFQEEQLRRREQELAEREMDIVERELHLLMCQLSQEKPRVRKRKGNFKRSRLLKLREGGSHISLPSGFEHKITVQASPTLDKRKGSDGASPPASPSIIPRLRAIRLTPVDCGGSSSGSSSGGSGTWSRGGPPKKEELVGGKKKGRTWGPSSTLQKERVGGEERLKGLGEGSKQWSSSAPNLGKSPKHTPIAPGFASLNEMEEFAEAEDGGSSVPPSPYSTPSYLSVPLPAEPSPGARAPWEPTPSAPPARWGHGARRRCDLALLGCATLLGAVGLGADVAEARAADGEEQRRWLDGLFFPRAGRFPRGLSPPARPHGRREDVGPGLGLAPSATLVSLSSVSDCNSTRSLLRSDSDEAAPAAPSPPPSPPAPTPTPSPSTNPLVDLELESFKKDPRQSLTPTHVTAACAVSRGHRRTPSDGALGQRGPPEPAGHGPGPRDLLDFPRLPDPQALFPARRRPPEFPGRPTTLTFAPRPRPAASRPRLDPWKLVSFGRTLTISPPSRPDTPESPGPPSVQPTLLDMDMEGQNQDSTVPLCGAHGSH
T20 sequence (P05771 whole entry): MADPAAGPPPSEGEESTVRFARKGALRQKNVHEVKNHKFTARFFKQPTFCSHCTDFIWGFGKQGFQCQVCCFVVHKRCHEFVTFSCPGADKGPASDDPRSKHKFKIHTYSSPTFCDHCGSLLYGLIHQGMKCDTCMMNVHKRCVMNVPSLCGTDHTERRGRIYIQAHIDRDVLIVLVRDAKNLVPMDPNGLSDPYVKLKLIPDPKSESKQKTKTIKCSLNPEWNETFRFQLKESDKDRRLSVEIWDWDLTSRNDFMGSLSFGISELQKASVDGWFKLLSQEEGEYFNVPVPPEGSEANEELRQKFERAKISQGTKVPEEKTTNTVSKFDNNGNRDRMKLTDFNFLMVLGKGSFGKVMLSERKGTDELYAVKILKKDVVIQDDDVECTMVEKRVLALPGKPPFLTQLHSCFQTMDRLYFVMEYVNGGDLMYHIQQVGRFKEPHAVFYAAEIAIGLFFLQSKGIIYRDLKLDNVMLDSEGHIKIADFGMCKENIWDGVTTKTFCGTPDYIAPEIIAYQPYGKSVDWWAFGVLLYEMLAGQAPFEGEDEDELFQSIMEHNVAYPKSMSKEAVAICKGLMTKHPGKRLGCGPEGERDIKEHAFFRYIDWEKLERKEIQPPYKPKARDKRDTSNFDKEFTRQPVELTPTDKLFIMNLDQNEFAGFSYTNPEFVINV
T19 sequence (Q05655 whole entry): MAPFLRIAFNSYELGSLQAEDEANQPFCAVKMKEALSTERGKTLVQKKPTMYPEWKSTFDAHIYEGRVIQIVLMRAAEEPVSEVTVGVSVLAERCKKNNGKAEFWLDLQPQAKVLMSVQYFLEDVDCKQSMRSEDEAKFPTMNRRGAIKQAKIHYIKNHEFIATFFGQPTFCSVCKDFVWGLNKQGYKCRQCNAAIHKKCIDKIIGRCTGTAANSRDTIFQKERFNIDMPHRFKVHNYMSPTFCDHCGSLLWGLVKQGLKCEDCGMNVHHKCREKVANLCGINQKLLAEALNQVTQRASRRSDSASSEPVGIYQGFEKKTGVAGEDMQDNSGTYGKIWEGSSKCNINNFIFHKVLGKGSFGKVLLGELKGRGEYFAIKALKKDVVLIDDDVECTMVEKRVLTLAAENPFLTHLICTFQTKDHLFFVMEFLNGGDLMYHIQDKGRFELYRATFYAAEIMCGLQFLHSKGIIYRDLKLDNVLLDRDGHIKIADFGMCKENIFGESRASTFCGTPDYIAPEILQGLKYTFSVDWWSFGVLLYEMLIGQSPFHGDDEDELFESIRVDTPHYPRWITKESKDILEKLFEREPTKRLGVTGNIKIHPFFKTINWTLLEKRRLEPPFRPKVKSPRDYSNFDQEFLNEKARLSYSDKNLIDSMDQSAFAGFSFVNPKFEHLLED

SMILES: CCN1CCN(C(=O)c2ccc(Nc3ncc(F)c(-c4ccc5nc(N(C)C)sc5c4)n3)nc2)CC1 [YK-2-69]
- remaining activity at 1 µM [1]: 80.1%
- remaining activity at 1 µM [2]: 48.3%
- remaining activity at 1 µM [3]: 83.2%
- remaining activity at 1 µM [4]: 104%
- remaining activity at 1 µM [5]: 103%
- remaining activity at 1 µM [6]: 81.7%
- remaining activity at 1 µM [7]: 108%
- remaining activity at 1 µM [8]: 89.5%
- remaining activity at 1 µM [9]: 104%
- remaining activity at 1 µM [10]: 80%
- % Enzyme Activity (relative to DMSO controls) [11]: 90.26% and 87.58%
- remaining activity at 1 µM [12]: 108%
- remaining activity at 1 µM [13]: 88.9%
- remaining activity at 1 µM [14]: 98.4%
- remaining activity at 1 µM [15]: 95.6%
- remaining activity at 1 µM [16]: 101%
- remaining activity at 1 µM [17]: 84.3%
- remaining activity at 1 µM [18]: 67.1%
- remaining activity at 1 µM [19]: 70.9%
- remaining activity at 1 µM [20]: 101%
- % Enzyme Activity (relative to DMSO controls) [21]: 100.08% and 99.24%
